Assay results from article PMC12040169 (PLOS Biology, 2025).

experiment: in vitro; conditions: human, hela cells, % viability

SMILES	viability at 28.5 h, 10 µM [%]
CCc1nnc(NS(=O)(=O)c2ccc(NCc3ccccc3O)cc2)s1 [CBK085149]	113
CC1=NN(c2ccc(Cl)c(Cl)c2)C(=O)C1 [CBK067761]	100
CC(=O)Nc1ccc(S(=O)(=O)Nc2ccc(S(=O)(=O)Nc3cc(C)ccc3C)cc2)cc1 [CBK264745]	98.4
O=C(c1ccccc1)c1cccc(OCCOc2nccnc2N2CCNCC2)c1 [CBK014250G]	96.1
CC(C)(C)OC(=O)N[C@@H](Cc1ccccc1)CN(Cc1ccccc1)Cc1ccc(S(=O)(=O)N2CCOC2=O)cc1 [CBK028952]	86.1
CCCN1CCC(=NNC(=O)c2c[nH]c3ccccc23)CC1 [CBK262597]	95.3
COc1ccc(CN2CCN(C(=O)c3ccccc3F)CC2)c(OC)c1 [CBK033601]	125
Cc1cnc(NCC2(CO)CCOCC2)nc1N(C)C [CBK307026]	104
CCOc1ccc(S(=O)(=O)N2CCC(C(=O)N3CCN(C)CC3)CC2)cc1 [CBK270075]	88.8
O=C(Cn1c(=O)n(Cc2ccco2)c2ncccc21)N1CCCC1 [CBK284708]	88.9
CC(C)C(=O)N1CC2(CCN(Cc3cc(=O)[nH]c(=O)[nH]3)CC2)c2ccccc21 [CBK144602T]	107
Clc1ccccc1-c1nnc(Cn2c3ccc(Br)cc3c3nc4ccccc4nc32)o1 [CBK269091]	88.5
CCc1cc(CNC(=O)c2ccc(C)c(-n3nc(C)cc3C)c2)on1 [CBK281557]	91.7
Cc1cc(C)c2nc(NC(=O)c3ccccc3)sc2c1 [CBK287308]	97.9
N#Cc1ccc(NC(=O)CCn2cnnn2)cc1 [CBK269832]	91.4
O=C1CC(c2noc(-c3ccncc3)n2)CN1c1ccccc1 (stereo not drawn) [CBK288043]	85.4
CC(=O)N1CCC(c2nc(Cc3cccs3)no2)C1 (stereo not drawn) [CBK282998]	108
O=C(O)c1ccccc1NC(=O)N1CCc2[nH]cnc2C1c1cccc(F)c1 (stereo not drawn) [CBK286824]	93.7
Cc1c(C(=O)N2CCN(C3CC3)CC2)nnn1Cc1ccc(F)cc1F [CBK305507]	97.1
COCC(=O)N1CCN2C(=O)N(Cc3ccccc3)C(=O)[C@H]2C1 [CBK289641]	91.4
Cn1c(=S)[nH]c2c(-c3ccccc3)c[nH]c2c1=O [CBK288488]	103
CCCCSc1nc(N)cc(N2CCC(N3CCCC3=O)CC2)n1 [CBK307525]	108
C/C(=N\NC(=O)c1nc(-c2ccccc2)cc(-c2ccccc2)n1)c1cccnc1 [CBK262827]	90.2

SMILES	viability at 28.5 h, 10 µM [%]
O=C(O)/C=C/c1cn([C@@H]2O[C@H](CO)[C@H](O)C2O)c(=O)[nH]c1=O (stereo partly drawn) [CBK201270]	96.7
N#CCCN(C(=O)NCc1cccnc1)C1CCCCC1 [CBK156355]	104
Cc1[nH]c2ccccc2c1C(CC(=O)c1ccc(Br)cc1)C(=O)O (stereo not drawn) [CBK269480]	90.9
O=C(O)c1ccc(NS(=O)(=O)Cc2ccccc2)cc1 [CBK034061]	105
COc1ccc(Cl)cc1N1CCN(CCN2CCCCC2)CC1 [CBK126445]	100
CCOc1ccc(Cl)cc1S(=O)(=O)NCCO [CBK269996]	94
CCc1ocnc1C(=O)NC1CCN(c2ncccc2C#N)CC1 [CBK306935]	93
COc1cc(/C=C2\N=C(c3cccs3)OC2=O)ccc1OCc1ccc(Cl)cc1 [CBK263176]	101
Cc1ccc(S(=O)(=O)N(C)CC(=O)NCc2nc(-c3ccccc3)no2)cc1 [CBK268524]	93.4
COc1ccccc1CNc1ncnc2[nH]ncc12 [CBK288100]	99.5
CC1Cc2cc(-c3cn4ccccc4n3)ccc2N1S(C)(=O)=O (stereo not drawn) [CBK285194]	94.3
C=CCN1CCC(C(=O)NC(C)c2cc(OC)ccc2OC)CC1 (stereo not drawn) [CBK148762]	116
Cc1c(Cl)c([N+](=O)[O-])nn1CCCC(=O)Nc1sc2c(c1C#N)CCC(C(C)(C)C)C2 (stereo not drawn) [CBK269111]	108
Cc1nc(C(Cc2ccsc2)NC(=O)Cn2ccnc2)sc1C (stereo not drawn) [CBK284777]	102
Oc1cccc(-c2cc(CC3(NCc4cnc5ccccc5c4)COC3)no2)c1 [CBK289662]	107
Cc1ccc2c(c1)N(CCO)/C(=C/c1sc3ccccc3[n+]1CCCS(=O)(=O)[O-])S2 [CBK293965]	93.5
O=C(Nc1c(F)cc(F)cc1OC1CCNCC1)c1cnccn1 [CBK050273T]	100
CNS(=O)(=O)c1ccc(NC(=O)c2cc(-c3ccc4c(c3)OCO4)nc3ccccc23)cc1 [CBK267735]	99
O=C(Nc1nc2ccccc2s1)NC1CC1 [CBK007542]	102
CCN1CCN(C(=S)c2ccc(OCC(N)=O)c(OC)c2)CC1 [CBK269293]	86.1
CC(C)CCN(C)C(=O)c1cccc(S(=O)(=O)NCc2ccsc2)c1 [CBK307656]	110
CC(C)(C)OC(=O)N1CCC(Sc2ccc(-c3ccco3)cc2)CC1 [CBK122552]	85.6
O=C(CSc1ncccc1C(=O)O)Nc1ccc(Oc2ccccc2)cc1 [CBK266340]	106

SMILES	viability at 28.5 h, 10 µM [%]
CCCSc1ncc(Cl)c(C(=O)Nc2ccc(S(=O)(=O)N3CC(C)OC(C)C3)cc2)n1 (stereo not drawn) [CBK269055]	100
COc1ccccc1NC(=O)CCSc1nc(C)cc(C)n1 [CBK266371]	103
CN(C(=O)CCC(=O)O)c1ccccc1C(=O)O [CBK261429]	104
O=C(NCCc1c[nH]c2ccccc12)N1CCN(Cc2ccccc2)CC1 [CBK155646]	78.9
Cc1cc(Cn2nnnc2-c2ccncc2)cc(C)c1O [CBK291103]	104
CCn1cc(S(=O)(=O)Nc2cc(C)on2)cn1 [CBK270302]	84.3
CCn1c(SCC(=O)O)nnc1-c1ccco1 [CBK068633]	86.8
O=S(=O)(Nc1cccc(-c2cnco2)c1)c1ccc(-c2cc(C(F)(F)F)on2)s1 [CBK067124]	100
O=C(O)C(Cc1ccccc1)Nc1ncnc2sc3c(c12)CCC3 (stereo not drawn) [CBK265266]	90.2
O=C(c1nccs1)C1CCN(C(=O)Cc2ccccc2F)CC1 [CBK284161]	87.3
COc1ccc(Nc2ccc(-c3ccc4c(c3)OCO4)cn2)c(C)c1 [CBK036799]	102
COc1ccc2c(CCNC(=O)C(c3ccccc3)c3ccccc3)c[nH]c2c1 [CBK269294]	81.3
NC(=O)COc1ccc(CNC(=O)CN2CCc3sccc3C2)cc1 [CBK306111]	99.4
Cc1nc(OCC(=O)O)c(C#N)c2c1COC(C)(C)C2 [CBK286810]	89.4
O=C(COc1ccc(S(=O)(=O)N2CCCC2)cc1Cl)NCC1CCCO1 (stereo not drawn) [CBK268243]	86.6
Cn1cncc1CN(CCc1ccccc1)Cc1ccncc1 [CBK282992]	87.4
O=S(=O)(NCCSCc1ccco1)c1ccc(Cl)cc1 [CBK232206]	85.6
O=S(=O)(Nc1nnn[nH]1)c1ccc(-c2ccccc2)cc1 [CBK062381]	99.7
COc1ccc(Cl)cc1NC(=O)CSc1nc2cc3ccccc3cc2[nH]1 [CBK268410]	82.1
CCOC(=O)c1cnn(C2CCCN(C(=O)c3cscc3C)C2)c1 (stereo not drawn) [CBK305385]	93.1
CCCCc1ccc(NS(=O)(=O)c2ccc(C)c(C(=O)O)c2)cc1 [CBK296111]	116
O=C(NC(c1ccccc1)c1ccccc1)c1ccc(Cl)cc1[N+](=O)[O-] [CBK262452]	84.1
Cc1cccc(-c2nc(=S)c3c(n2CCCN(C)C)CCCC3)c1 [CBK268406]	102

SMILES	viability at 28.5 h, 10 µM [%]
O=C(O)C1(Oc2ccc3ccccc3c2)CCN(CC2CCOC2)CC1 (stereo not drawn) [CBK306767]	91.4
CCOC(=O)N1CCN(S(=O)(=O)c2coc(C)c2C(=O)OC)CC1 [CBK057079]	94.7
CCNc1cc(-c2ccc(OC)cc2)ncn1 [CBK090883]	89
CCOC(=O)c1c(-n2cnnn2)sc(C)c1C [CBK027660]	93.6
COc1ccc2c(c1)C(C)CC(C)(C)N2C(=O)CSc1nnc(-c2ccco2)n1C (stereo not drawn) [CBK059169]	102
O=c1oc(-c2ccoc2)nn1Cc1ccccc1F [CBK283726]	98.5
c1csc(CN2CCC(n3cnc4cccnc43)CC2)c1 [CBK283968]	101
Cc1cc2ccccc2n1CCCNS(=O)(=O)c1ccc2[nH]c(=O)[nH]c(=O)c2c1 [CBK286362]	96
Cn1c2ccccc2c2nnc(SCCCC(=O)c3ccc(F)cc3)nc21 [CBK268830]	92.8
Cn1ccc(C2=C(N)C(C#N)C3=C(CC(C)(C)CC3=O)O2)c1 (stereo not drawn) [CBK022168]	109
O=C(CN1CCN(Cc2ccc3c(c2)OCO3)CC1)Nc1ccc(Oc2ccccc2)cc1 [CBK265864]	94
CSc1ccc(-c2nccnc2OC(c2ccccc2)c2ccccc2)cc1 [CBK106797]	90.2
COc1cccc(-c2csc(NS(=O)(=O)c3ccc(C)c(C(=O)O)c3)n2)c1 [CBK299803]	99.1
CC(=O)Nc1ccc(S(=O)(=O)NCCC#N)cc1Cl [CBK044272]	95.2
COc1ccccc1N/C(=N\OCc1ccc(Cl)cc1Cl)c1nonc1N [CBK018391]	91
CC(C)(C)C1=CC2=NC3(CCC3)C3C[C@](O)(Cc4ccccc4)[C@@H](O)[C@@H]3N2O1 (stereo partly drawn) [CBK303261]	95.7
C[C@H]1CC[C@H](C(=O)N2CCC[C@H]2C(=O)O)CC1 [CBK028320]	81.9
CC1=Nc2c(cnn2-c2ccccc2)C2=NCCCN12 [CBK287928]	91.6
Cc1cc(C)c2oc(-c3cccc(NC(=O)c4cccc(Cl)c4Cl)c3C)nc2c1 [CBK264005]	84.2
Cc1cc(OCc2nc(-c3ccc(NC(=O)c4ccc5c(c4)OCO5)cc3)no2)ccc1Cl [CBK266673]	95.7
CCOC(=O)Cn1nc(CC)n2c(cc3sccc32)c1=O [CBK284073]	80.3
